System: SARS-CoV-2
Assay: In vitro SARS-CoV-2 plaque inhibition assay in Vero E6 cells
Assay type: cell-based

Structure (SMILES)	antiviral effects (plaque inhibition) (10 µM, 48 h)	reduction of the production of SARS-CoV-2 plaques (10 µM, 48 h)	IC50 (Severe acute respiratory syndrome coronavirus 2, Vero C1008, estimated, read-out: IC50 plaque formation)
COC(=O)N[C@H](C(=O)N[C@@H](Cc1ccccc1)[C@@H](O)CN(Cc1ccc(-c2ccccn2)cc1)NC(=O)[C@@H](NC(=O)OC)C(C)(C)C)C(C)(C)C [Atazanavir]	no antiviral effects	–	–
CC[C@H](NC(=O)[C@H](C)NC)C(=O)N1C[C@@H](O)C[C@H]1Cc1c(-c2[nH]c3cc(F)ccc3c2C[C@@H]2C[C@H](O)CN2C(=O)[C@H](CC)NC(=O)[C@H](C)NC)[nH]c2cc(F)ccc12 [Birinapant]	–	37%	18 ± 3.6 µM

Reference: patent US20230172907A1, “SARS-COV-2 INHIBITORS” (priority 2021, published 2023)
